Source: patent US20240261434A1, “PRODUCTS AND METHODS FOR TREATING MUSCULAR DYSTROPHY” (priority 2020, published 2024)

Key:
Format in all cases: in vivo, mouse
[1] = qPCR quantification of viral vector genomes (biodistribution) in muscles of Dup2 mice; details: adult Dup2 mice, tail vein, 3 months post-injection
Procedure: Physical titer determination was determined based on degradation of non-encapsidated DNA following digestion of viral capsids. Released encapsidated DNA was quantified by qPCR to determine the DNAase Resistant Particle (DRP) titer. The DRP titer (also referred to as vector genomes [vg]) were determined for scAAV9.U7.ACCA or scAAV1.U7-ACCA products using real-time quantitative PCR (qPCR) using dilutions of a linearized plasmid standard containing U7 amplicon as assay standards. The DRP quantitative PCR (qPCR) assay involves serial dilution of the test sample (10^−2 to 10^−5) and sequential digestion with DNase I and Proteinase K, followed by qPCR analysis. DNA detection was accomplished using sequence specific primers targeting a primer/probe combination specific to the construct sequence (probe: 5′-[…]-3′ (SEQ ID NO: 4); Fw primer: 5′-agctcctatgttgttaTCTAGAG-3′ (SEQ ID NO: 5); Rv primer: 5′-[…]-3′ (SEQ ID NO: 6)) and amplified using a fluorescently tagged probe hybridizing to the U7 amplicon. Titration of the encapsidated viral genome were performed using quantitative PCR-based titration method runned on a Prism 7500 Taqman detector system (PE Applied Biosystems).
All tissues and organs for qPCR/Biodistribution studies were placed into sterile tubes, snap-frozen in liquid nitrogen, and kept at <−70° C. qPCR analyses were performed on samples at 1, 3 and 6 months post-injection. 300 ul DNA lysis buffer (0.05M Tris-HCl pH 8, 0.1M NaCl, 0.1M EDTA, 1% SDS) plus 7.5 ul proteinase K were added to sections and incubated at 55° C. overnight. DNA was quantified and 25 ng of DNA was run in triplicate. The same qPCR primers and probe used for vector titration were used to perform the tissue biodistribution qPCR studies. Data were represented as normalized copy number per 1 ug DNA.

Dup2 mice [2] = test: Evans blue dye (EBD) positive fibers after exhaustive treadmill exercise in Dup2 mice; details: adult Dup2 mice, tail vein
Procedure: (§1) To induce muscle injury for Evans blue dye (EBD) analysis, a treadmill exercise program was used. In the first week, four month old mice were trained three times on a treadmill at 10° inclination, running as follows: 0 m/min for 2 min, 5 m/min for 5 min, 10 m/min for 15 min, and 12 m/min for 5-10 min. In the following three weeks (3×/week), mice ran on the treadmill at 2 m/min for 30 min. Before mice euthanasia, the treadmill was used at the same inclination at 5 m/min for 5 min. Following this initial warming up, the speed was increased to +1 m/min until exhaustion. EBD solution (10 mg/ml in PBS) was filtered and injected intraperitoneally (IP) into mice after the last treadmill exercise, and mice were sacrificed 24 hrs later. For analysis, muscle sections were stained with α-laminin to distinguish myofibers, and the percentage of positive Evans blue fibers (labeled in red) were then quantified using ImageJ software. For quantification of centronucleation, H&E staining was performed using standard technique, and fiber counting was performed manually using ImageJ. For both analyses, three sections were processed and counted for each animal.
(§2) H&E staining was performed using standard protocol. Quantification of both centronucleation and Evans blue dye (EBD) was performed manually using ImageJ. Three sections were processed and counted for each animal.

[3] = tested on: tibialis anterior (TA) muscle; test: Force generation and protection from eccentric contractions, tibialis anterior of Dup2 mice; design: Eccentric contraction: % force decrease: scale not given here; details: tail vein adult Dup2 mice
Procedure: Physiologic studies were conducted on TA muscles from 12 week old mice that had been treated with an intramuscular injection of 3.1×10^11 vg at 8 weeks (N≥5 limbs). For systemic studies, the mice were 20-21 weeks old following 12 weeks of treatment (N≥12 limbs). The force study procedure was conducted using a modified version of Hakim's procedure (Hakim et al., J Appl. Physiol. (1985) 2011; 110:1656-1663; Wein et al., Nat. Med. 2014; 20:992-1000). Initial anesthetization of mice was conducted by giving an intraperitoneal injection of a cocktail containing five times their weight (i.e., the weight of the mouse) of 25 mg/mL ketamine and twice their weight of 2.5 mg/ml xylazine. […]
The resting force was set to between 3-4 g for a 10 minute equilibrium period. The TA muscle was then stimulated at the optimal length (Lo, mm) and active tetanic muscle force was recorded to give the absolute force measurement using the Lab View-based DMC program (Aurora Scientific). […] The cross-sectional area measured as mass (g)/(muscle density×ratio of fiber length×Lo) where muscle density is 1.06 mg/mm^3 and the ratio of fiber length in the TA is 0.6 (Burkholder et al., J Morphol 1994; 221:177-190). […] Statistical significance was assessed using a Kruskal-Wallace test assuming nonparametric data in the GraphPad Prism (version 6.03 for Windows, GraphPad Software, San Diego California USA). […]

dystrophin = test: Western blot / immunoblot quantification of dystrophin in muscles of Dup2 mice; details: for Western blot quantification: % of dystrophin: percent of WT, adult Dup2 mice, tail vein, 3 months post-injection
Procedure: (§3) 150 μl of this lysis buffer was used for 100 mg of tissue. This solution was then put on ice for 30min, and then tissue was lysed using a metal bead (1 min at 30 Hz, TissueLyser II, Qiagen). These last two steps were repeated, and then the lysate was centrifuged at 14000 g for 20min at 4° C. The supernatant was mixed with a classical 4× Laemmli buffer and boiled for 5 min at 100° C. 50-150 μg of protein were run on a precast 3-8% Tris-Acetate gel (NuPage, Life Science) for 16 h at 80V (4° C.). Using a nitrocellulose membrane, gels were transferred overnight at 300 mA using a cooling device. […] All antibodies were diluted in half Odyssey blocking buffer (Licor®) and half Tris buffered saline with Tween (TBST) (Sigma-Aldrich). Following secondary incubation, 5×5 min with 0.1% Tween washes were performed followed by a ddH2O rincing. Both IRDye@ signals were simultaneously scanned using the Odyssey® CLx (LI-COR). The signals for both dystrophin, utrophin and α-actinin were quantified using ImageJ.
With some experiments, 25×40 μm thick sections of cryopreserved tissues were used for western blotting to quantify amount of restored dystrophin protein. Extracted protein was run on 3-8% Tris-Acetate protein gels and visualized using specific primary antibodies against dystrophin or α-actinin the corresponding Licor secondary antibodies IRDye 680 or IRDye 800 (as set out above). Blots were imaged using the Licor Odyssey CLx and quantified using ImageJ.
Steel beads were added to the tissue, which was homogenized using the Tissuelyser II (Qiagen) for 2 min at a rate of 30/sec. Lysates were then incubated on ice and spun down; the supernatant was removed and stored at −80═ C. until immunoblotting, and the cell debris was discarded. For immunoblotting, 50 μg C57BL/6 muscle tissue protein or 150 μg Dup2 muscle tissue protein was loaded with a loading dye (1× laemmli) on a 3-8% Tris Acetate gel (Life Technologies, EA0378BOX). […] The membrane was scanned on the Odyssey CLx and imaged using Image Studio 14. Single color channel images were using Image Studio and then imported into ImageJ for quantification. For each channel, a box was drawn in each lane around the protein band using the “Gel” function in ImageJ. A histogram of each sample was then generated and the area under the curve was measured. Dystrophin was normalized to α-actinin by dividing the area of the dystrophin band by the area of the α-actinin band for each sample. If the same sample was run on multiple immunoblots, the median was taken to represent that particular sample. The C57BL/6 measurement was determined by taking the mean of all wild type samples. Both treated Dup2 and control Dup2 measurements were reported as a percentage of the wild type (n≥3).

Dup2 mice [4] = test: Quantification of centronucleation of myofibers (H&E) in Dup2 mice; details: adult Dup2 mice, tail vein, 3 months post-injection
Procedure: as §1, §2

DMD exon 2 = test: RT-PCR quantification of DMD exon 2 skipping (Dup2, WT, Del2 transcripts) in muscles of Dup2 mice; details: adult Dup2 mice, tail vein, 3 months post-injection
Procedure: Total RNA was isolated from tissue samples and analyzed by reverse transcription (RT) followed by PCR. […] For each sample, 1 μg of total RNA was used to generate cDNA by RT-PCR using random hexamer primers according to the manufacturer's protocol (Thermo Scientific, Ferk1672) and then used for a single PCR of 35 cycles using 1 μg of RNA and a mixture of random hexamer and oligo(dT) for each RT reaction. mRNA was then amplified via primers specific to the DMD 5′UTR and the exon 3-4 junction as follows.
Following electrophoresis, PCR products were electrophoresed on a 2% agarose gel and imaged using a Gel Logic 200 Imaging System (Kodak). Quantification of Dup2, WT or Del2 transcript was performed using ImageJ (an open source platform for scientific image analysis), and each band plotted in Prism (GraphPad) as a percentage of the overall dystrophin transcript. The images were then used to quantify the relative amount of each transcript using ImageJ software 14. Using the “Gel” function of ImageJ, a box was drawn in each lane around the area where the three possible transcripts would be. A histogram of each sample was then generated and the area under the curve was measured. The sum of the area under the three peaks were added together and then individual peak area was measured as a percentage of the total.

utrophin = test: Western blot quantification of utrophin in muscles of Dup2 mice; details: adult Dup2 mice, tail vein, 3 months post-injection
Procedure: as §3

## C[C@H]1C[C@@H]2[C@H]([C@@H](O)C[C@@]3(C)[C@H]2CC[C@]3(O)C(=O)COC(=O)CCC(=O)[O-])[C@@]2(C)C=CC(=O)C=C12.[Na+] [PDN, 6α-methylprednisolone 21-hemisuccinate sodium salt]
[1]; DIA
  viral vector genome quantification: 17 vector/ug DNA
[1]; GAS
  viral vector genome quantification: 15 vector/ug DNA
[1]; HEART
  viral vector genome quantification: 188 vector/ug DNA
[1]; TA
  viral vector genome quantification: 39 vector/ug DNA
[1]; TRI
  viral vector genome quantification: 50 vector/ug DNA
Dup2 mice [2]; DIA
  % of EBD positive fibers: 12.31%
Dup2 mice [2]; GAS
  % of EBD positive fibers: 3.04%
Dup2 mice [2]; TA
  % of EBD positive fibers: 8.14%
Dup2 mice [2]; TRI
  % of EBD positive fibers: 2.57%
[3]
  Absolute force: Force (mN): 1401 mN
[3]; repeated eccentric contractions
  Eccentric contraction: % force decrease: 0.52
dystrophin; DIA
  Western blot quantification: % of dystrophin: 9.2%
dystrophin; Dup2 mice, PDN alone
  dystrophin expression: does not induce dystrophin expression
dystrophin; GAS
  Western blot quantification: % of dystrophin: 2.1%
dystrophin; HEART
  Western blot quantification: % of dystrophin: 13.7%
dystrophin; TA
  Western blot quantification: % of dystrophin: 4.83%
dystrophin; TRI
  Western blot quantification: % of dystrophin: 4.8%
Dup2 mice [4]; DIA
  % of centronucleation: 68.55%
Dup2 mice [4]; TA
  % of centronucleation: 71.12%
DMD exon 2; DIA
  RT-PCR quantification: % of Del2 transcript: 0%
  RT-PCR quantification: % of Dup2 transcript: 97.7%
  RT-PCR quantification: % of WT transcript: 2.3%
DMD exon 2; GAS
  RT-PCR quantification: % of Del2 transcript: 4.3%
  RT-PCR quantification: % of Dup2 transcript: 86%
  RT-PCR quantification: % of WT transcript: 9.6%
DMD exon 2; HEART
  RT-PCR quantification: % of Del2 transcript: 0%
  RT-PCR quantification: % of Dup2 transcript: 98.3%
  RT-PCR quantification: % of WT transcript: 1.6%
DMD exon 2; TA
  RT-PCR quantification: % of Del2 transcript: 0%
  RT-PCR quantification: % of Dup2 transcript: 100%
  RT-PCR quantification: % of WT transcript: 0%
DMD exon 2; TRI
  RT-PCR quantification: % of Del2 transcript: 0%
  RT-PCR quantification: % of Dup2 transcript: 98.3%
  RT-PCR quantification: % of WT transcript: 1.7%
utrophin; DIA
  Western blot quantification: ratio of utrophin/a-actinin: 0.6
utrophin; GAS
  Western blot quantification: ratio of utrophin/a-actinin: 0.2
utrophin; HEART
  Western blot quantification: ratio of utrophin/a-actinin: 0.5
utrophin; TA
  Western blot quantification: ratio of utrophin/a-actinin: 0.3
utrophin; TRI
  Western blot quantification: ratio of utrophin/a-actinin: 0.4
